Measured values: BindingDB's records for doi:10.1016/j.bmc.2010.11.049 (Bryn Mawr College, 2011)

Experiment: Inhibition of HIV1 YU2 gp120 binding to CD4 expressing Cf2Th-CD4/CCR5 cells assessed as inhibition of viral infection after 48 hrs

Cc1ccc(N(C)C)cc1NC(=O)COc1ccc(Cl)cc1 [2-(4-chlorophenoxy)-N-(5-(dimethylamino)-2-methylphenyl)acetamide]
IC50: > 100 µM

CC1(C)CC(NC(=O)C(=O)NCCc2ccc(Cl)cc2)CC(C)(C)N1 [4-(2-(4-chlorophenethylamino)-2-oxoacetamido)-2,2,6,6-tetramethylpiperidinium]
IC50: > 100 µM

Cc1ccc(C(C)C)c(OCC(=O)NNC(=O)Nc2ccc(Cl)cc2)c1 [N-(4-chlorophenyl)-2-(2-(2-isopropyl-5-methylphenoxy)acetyl)hydrazinecarboxamide]
IC50: > 100 µM

O=C(NCC1OCCc2ccccc21)C(=O)Nc1ccc(Br)cc1 (centres undefined) [N1-(4-bromophenyl)-N2-(isochroman-1-ylmethyl)oxalamide]
IC50: > 100 µM

O=C(Nc1ccc(Cl)c(F)c1)C(=O)N[C@@H]1CCN(Cc2ccccc2)C1 [(R)-N1-(1-benzylpyrrolidin-3-yl)-N2-(4-chloro-3-fluorophenyl)oxalamide]
IC50: 58.5 µM

CCN1CCCC1CNC(=O)C(=O)Nc1ccc(Cl)cc1 (centres undefined) [N1-(4-chlorophenyl)-N2-((1-ethylpyrrolidin-2-yl)methyl)oxalamide]
IC50: 58.6 µM

O=C(NCc1ccc2c(c1)OCO2)C(=O)Nc1ccc(Br)cc1 [N1-(benzo[d][1,3]dioxol-5-ylmethyl)-N2-(4-bromophenyl)oxalamide]
IC50: > 100 µM

CC1Sc2cc(C(=O)NC3CC(C)(C)NC(C)(C)C3)ccc2NC1=O (centres undefined) [2,2,6,6-tetramethyl-4-(2-methyl-3-oxo-3,4-dihydro-2H-benzo[b][1,4]thiazine-7-carboxamido)piperidinium]
IC50: > 100 µM

CN1CCCC(CNC(=O)C(=O)Nc2ccc(Cl)c(F)c2)C1 (centres undefined) [N1-(4-chloro-3-fluorophenyl)-N2-((1-methylpiperidin-3-yl)methyl)oxalamide]
IC50: > 100 µM

O=C(NC[C@@]12CCC[C@@H]1CNC2)C(=O)Nc1ccc(Cl)c(F)c1 [N1-(4-chloro-3-fluorophenyl)-N2-(((3aS,6aS)-octahydrocyclopenta[c]pyrrol-3a-yl)methyl)oxalamide]
IC50: 68.3 µM

CN(C)C(CNC(=O)C(=O)Nc1ccc(Cl)c(F)c1)N1CCCC1 (centres undefined) [N1-(4-chloro-3-fluorophenyl)-N2-(2-(dimethylamino)-2-(pyrrolidin-1-yl)ethyl)oxalamide]
IC50: > 100 µM

Cc1cc(Cl)ccc1NC(=O)C(=O)NC1CC(C)(C)NC(C)(C)C1 [N1-(4-chloro-2-methylphenyl)-N2-(2,2,6,6-tetramethylpiperidin-4-yl)oxalamide]
IC50: > 100 µM

CC1(C)CC(=O)c2cc(C(=O)Nc3ccc(Cl)cc3)c(=O)[nH]c2C1 [N-(4-chlorophenyl)-7,7-dimethyl-2,5-dioxo-1,2,5,6,7,8-hexahydroquinoline-3-carboxamide]
IC50: > 100 µM

O=C(Nc1ccc(Br)cc1)c1cc(CN2CCCC2)on1 [N-(4-bromophenyl)-5-(pyrrolidin-1-ylmethyl)isoxazole-3-carboxamide]
IC50: > 100 µM

CNC(=O)c1ccc(CNC(=O)C(=O)Nc2ccc(Cl)c(F)c2)cc1 [N1-(4-chloro-3-fluorophenyl)-N2-(4-(methylcarbamoyl)benzyl)oxalamide]
IC50: > 100 µM

C[C@@H]1CCC[C@H](C)N1CCNC(=O)C(=O)Nc1ccc(Cl)c(F)c1 [N1-(4-chloro-3-fluorophenyl)-N2-(2-((2S,6R)-2,6-dimethylpiperidin-1-yl)ethyl)oxalamide]
IC50: 75.5 µM

CN1CCC(NC(=O)Nc2ccc(Cl)cc2Cl)CC1 [4-(3-(2,4-dichlorophenyl)ureido)-1-methylpiperidinium]
IC50: > 100 µM

CC1CN(CCNC(=O)C(=O)Nc2ccc(Cl)c(F)c2)CC(C)O1 (centres undefined) [N1-(4-chloro-3-fluorophenyl)-N2-(2-(2,6-dimethylmorpholino)ethyl)oxalamide]
IC50: > 100 µM

CC1(C)CC(NC(=O)C(=O)Nc2ccc(Cl)cc2Cl)CC(C)(C)N1 [N1-(2,4-dichlorophenyl)-N2-(2,2,6,6-tetramethylpiperidin-4-yl)oxalamide]
IC50: > 100 µM

O=C(Nc1ccc(Cl)cc1)c1cc2c([nH]c1=O)CCCC2 [N-(4-chlorophenyl)-2-oxo-1,2,5,6,7,8-hexahydroquinoline-3-carboxamide]
IC50: > 100 µM

O=C(Nc1ccc(Cl)cc1)Nc1ncnc2nc[nH]c12 [1-(4-chlorophenyl)-3-(9H-purin-6-yl)urea]
IC50: > 100 µM

O=C(COc1ccc(Cl)cc1)Nc1ccc2[nH]c(=O)[nH]c2c1 [2-(4-chlorophenoxy)-N-(2-oxo-2,3-dihydro-1H-benzo[d]imidazol-5-yl)acetamide]
IC50: > 100 µM

O=C(COC(=O)c1n[nH]c2ccccc12)Nc1ccc(Cl)cn1 [2-(5-chloropyridin-2-ylamino)-2-oxoethyl 1H-indazole-3-carboxylate]
IC50: > 100 µM

CN1CCN(C(CNC(=O)C(=O)Nc2ccc(Cl)c(F)c2)c2cccs2)CC1 (centres undefined) [N1-(4-chloro-3-fluorophenyl)-N2-(2-(4-methylpiperazin-1-yl)-2-(thiophen-2-yl)ethyl)oxalamide]
IC50: > 100 µM

CC1(C)CC(NC(=O)C(=O)Nc2ccc(Cl)cc2C(F)(F)F)CC(C)(C)N1 [N1-(4-chloro-2-(trifluoromethyl)phenyl)-N2-(2,2,6,6-tetramethylpiperidin-4-yl)oxalamide]
IC50: > 100 µM

CC1(C)NC(=O)N(C[C@H](O)COc2ccc(Cl)cc2)C1=O [(S)-3-(3-(4-chlorophenoxy)-2-hydroxypropyl)-5,5-dimethylimidazolidine-2,4-dione]
IC50: > 100 µM

CCOc1cc(Cl)ccc1NC(=O)C(=O)NC1CC(C)(C)NC(C)(C)C1 [N1-(4-chloro-2-ethoxyphenyl)-N2-(2,2,6,6-tetramethylpiperidin-4-yl)oxalamide]
IC50: > 100 µM

Cc1cc(OCC(=O)NCc2nnc[nH]2)ccc1Cl [N-((1H-1,2,4-triazol-3-yl)methyl)-2-(4-chloro-3-methylphenoxy)acetamide]
IC50: > 100 µM

O=C(CN1CCCCCC1)Nc1ccc(Br)cc1 [2-(azepan-1-yl)-N-(4-bromophenyl)acetamide]
IC50: > 100 µM

Cc1cc(SCC(=O)Nc2ccc(Cl)cc2)[nH]c(=O)n1 [N-(4-chlorophenyl)-2-(6-methyl-2-oxo-1,2-dihydropyrimidin-4-ylthio)acetamide]
IC50: > 100 µM

CC(C)Oc1cc(NC(=O)C(=O)NC2CC(C)(C)NC(C)(C)C2)ccc1Cl [N1-(4-chloro-3-isopropoxyphenyl)-N2-(2,2,6,6-tetramethylpiperidin-4-yl)oxalamide]
IC50: > 100 µM

CC(C)N1CCCCC1CCNC(=O)C(=O)Nc1ccc(Cl)c(F)c1 (centres undefined) [N1-(4-chloro-3-fluorophenyl)-N2-(2-(1-isopropylpiperidin-2-yl)ethyl)oxalamide]
IC50: 27 µM

O=C(Nc1ccc(Cl)cc1)C(=O)c1c[nH]c2ccccc12 [N-(4-chlorophenyl)-2-(1H-indol-3-yl)-2-oxoacetamide]
IC50: > 100 µM

Nc1ncc(CNC(=O)C(=O)Nc2ccc(Cl)c(F)c2)cn1 [N1-((2-aminopyrimidin-5-yl)methyl)-N2-(4-chloro-3-fluorophenyl)oxalamide]
IC50: > 100 µM

O=C(Nc1ccc(Br)cc1)C(=O)Nc1cccc2ccccc12 [N1-(4-bromophenyl)-N2-(naphthalen-1-yl)oxalamide]
IC50: > 100 µM

COc1cccc(CNC(=O)C(=O)Nc2ccc(Cl)cc2)c1 [N1-(4-chlorophenyl)-N2-(3-methoxybenzyl)oxalamide]
IC50: > 100 µM

CC(C)COc1cc(Cl)ccc1NC(=O)C(=O)NC1CC(C)(C)NC(C)(C)C1 [N1-(4-chloro-2-isobutoxyphenyl)-N2-(2,2,6,6-tetramethylpiperidin-4-yl)oxalamide]
IC50: > 100 µM

CCOC(=O)[C@H]1CCCN(CCC(=O)Nc2ccc(Br)cc2)C1 [(3S)-1-(3-(4-bromophenylamino)-3-oxopropyl)-3-(ethoxycarbonyl)piperidinium]
IC50: > 100 µM

Cn1ccnc1C(O)(CCNC(=O)C(=O)Nc1ccc(Cl)c(F)c1)C(F)(F)F (centres undefined) [N1-(4-chloro-3-fluorophenyl)-N2-(4,4,4-trifluoro-3-hydroxy-3-(1-methyl-1H-imidazol-2-yl)butyl)oxalamide]
IC50: > 100 µM

CC1(C)CC(NC(=O)C(=O)Nc2cccc(OCc3ccccc3)c2)CC(C)(C)N1 [N1-(3-(benzyloxy)phenyl)-N2-(2,2,6,6-tetramethylpiperidin-4-yl)oxalamide]
IC50: > 100 µM

CCN(CC)C(CNC(=O)C(=O)Nc1ccc(Cl)c(F)c1)CC(C)C (centres undefined) [N1-(4-chloro-3-fluorophenyl)-N2-(2-(diethylamino)-4-methylpentyl)oxalamide]
IC50: > 100 µM

CC1(C)Cc2c(sc(NC(=O)C(=O)Nc3ccc(Cl)c(F)c3)c2C#N)C(C)(C)N1 [N1-(4-chloro-3-fluorophenyl)-N2-(3-cyano-5,5,7,7-tetramethyl-4,5,6,7-tetrahydrothieno[2,3-c]pyridin-2-yl)oxalamide]
IC50: > 100 µM

C[C@@H]1CN(CCC(=O)Nc2ccc(Br)cc2)C[C@H](C)O1 [(2R,6S)-4-(3-(4-bromophenylamino)-3-oxopropyl)-2,6-dimethylmorpholin-4-ium]
IC50: > 100 µM

CCCN1CCCC(NC(=O)C(=O)Nc2ccc(Cl)c(F)c2)C1 (centres undefined) [N1-(4-chloro-3-fluorophenyl)-N2-(1-propylpiperidin-3-yl)oxalamide]
IC50: 58 µM

CNS(=O)(=O)Cc1ccc(CNC(=O)C(=O)Nc2ccc(Cl)c(F)c2)cc1 [N1-(4-chloro-3-fluorophenyl)-N2-(4-(N-methylsulfamoylmethyl)benzyl)oxalamide]
IC50: > 100 µM

COc1cc(NC(=O)C(=O)NC2CC(C)(C)NC(C)(C)C2)ccc1Cl [N1-(4-chloro-3-methoxyphenyl)-N2-(2,2,6,6-tetramethylpiperidin-4-yl)oxalamide]
IC50: > 100 µM

O=C(NCC(c1ccco1)N1CCCC1)C(=O)Nc1ccc(Cl)c(F)c1 (centres undefined) [N1-(4-chloro-3-fluorophenyl)-N2-(2-(furan-2-yl)-2-(pyrrolidin-1-yl)ethyl)oxalamide]
IC50: > 100 µM

CN1CCC(CNC(=O)C(=O)Nc2ccc(Cl)c(F)c2)CC1 [N1-(4-chloro-3-fluorophenyl)-N2-((1-methylpiperidin-4-yl)methyl)oxalamide]
IC50: > 100 µM

CC(NC(=O)C(=O)Nc1ccc(Cl)c(F)c1)c1ccc2c(c1)NC(=O)CO2 (centres undefined) [N1-(4-chloro-3-fluorophenyl)-N2-(1-(3-oxo-3,4-dihydro-2H-benzo[b][1,4]oxazin-6-yl)ethyl)oxalamide]
IC50: > 100 µM
